A short description of series [1]: Pharmacokinetics in beagle dogs. It counts as in vivo. The settings on record: for MRT: beagle. As for the experimental part:
After subcutaneous administration to beagle dogs, plasma was collected and the drug concentration in plasma was determined to illustrate the in vivo pharmacokinetic properties of the compound according to the present invention. The compound of the present invention was administered to a beagle dog (7-9 kg) at a dose of 0.05mg/kg subcutaneously (s.c.). About 500 µL of whole blood was collected from the saphenous vein into an EDTA-K2 anticoagulant tube at predose, 0.5 hours, 1 hour, 2 hours, 6 hours, 10 hours, 24 hours, 48 hours, 72 hours and 96 hours, respectively. The blood samples were centrifuged at 3000 g and at 2°C to 8°C for 10 minutes to obtain plasma, which was stored at -90°C to -60°C for further analysis and assay.
20.0 µL of thawed plasma sample was taken. […] Then 120 µL of 0.1% formic acid in methanol was added to precipitate the protein. The mixture was vortexed for 5 minutes, and centrifuged at 4815g for 10 minutes. 100.0 µL of the supernatant was taken, into which 100 µL of 0.5% aqueous formic acid solution was added. The mixture was vortexed for 5 minutes. 10 µL of the mixture solution was sampled and injected into the LC-MS/MS to determine the drug concentration in plasma.
Based on the drug concentration in plasma of the compound in the beagle dogs, the pharmacokinetic parameters were calculated by applying the software Winnolin 8.3 in a non-compartmental model. Table 11 Average pharmacokinetic parameters after single subcutaneous administration in beagle dogs

Another series concerns the target T1, rabbit GIPR (Oryctolagus cuniculus, UniProt G1T265).
T1 construct: expressed in transfected cells; host or cells: CHO-K1 (transient)
T1 sequence (G1T265 23-468): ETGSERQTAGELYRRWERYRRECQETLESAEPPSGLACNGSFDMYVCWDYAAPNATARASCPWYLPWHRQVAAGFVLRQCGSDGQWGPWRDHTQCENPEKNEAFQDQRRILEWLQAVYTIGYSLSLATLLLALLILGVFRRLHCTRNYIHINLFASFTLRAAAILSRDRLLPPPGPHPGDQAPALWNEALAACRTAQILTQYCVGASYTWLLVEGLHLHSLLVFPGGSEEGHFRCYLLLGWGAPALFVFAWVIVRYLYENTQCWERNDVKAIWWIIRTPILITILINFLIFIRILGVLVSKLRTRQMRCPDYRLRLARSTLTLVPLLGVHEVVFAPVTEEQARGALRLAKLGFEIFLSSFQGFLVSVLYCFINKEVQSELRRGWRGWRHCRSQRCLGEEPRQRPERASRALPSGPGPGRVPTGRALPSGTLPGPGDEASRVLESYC
In words: Agonistic activity on GIPR of different species (LANCE Ultra cAMP assay): rabbit. It counts as cell-based. As to conditions: ratio of EC50 value of other species to human EC50 value. As for the experimental part:
CHO-K1 cells were seeded in a 6-well plate at 0.6×10^6 cells/well and incubated overnight in an incubator at a temperature of 37 °C and a carbon dioxide concentration of 5%. The next day, CHO-K1 cell media were replaced. Then two tubes A and B were prepared for each plasmid. 100 µL Opti-MEM was added to tube A, then 4 µL Lipofectamine™ 3000 was added and mixed uniformly. 100 µL Opti-MEM was firstly added to tube B, then 2 µg of one of the plasmids (human GIPR-pcDNA5 (+) plasmid, dog GIPR-pcDNA5 (+) plasmid, mouse GIPR-pcDNA5 (+) plasmid, rat GIPR-pcDNA5 (+) plasmid, rabbit GIPR-pcDNA5 (+) plasmid, monkey GIPR-pcDNA5 (+) plasmid) was added and mixed uniformly, and 4 µL P3000™ was added to tube B and mixed uniformly (the ratio of plasmid to transfection reagent was 1 µg: 2 µL). […]
18-20 hours after transfection, human GIPR-CHO, dog GIPR-CHO, mouse GIPR-CHO, rat GIPR-CHO, rabbit GIPR-CHO, and monkey GIPR-CHO cells were resuspended in 1×Casein Stimulation Buffer (HBSS, 5 mM HEPES, 0.5 mM IBMX, 0.1% casein, pH7.4), and seeded into a 384-well cell culture plate at 9 µL/well (cell numbers being 1000, 2000, 2000, 2000, 2000, 2000 cells/well, respectively). […] The readings at 665 nm and 620 nm were determined with a 330 nm excitation light on a microplate reader. The 665 nm/620 nm reading ratio was calculated. […]
A general note: In TR-FRET formats the signal depends on donor and acceptor labels being close together.

Where [2] appears, read: beagle dogs, single subcutaneous administration, 0.05mg/kg.
The mark [3] stands for this setting: dog, in vivo, sc, beagle dogs, single subcutaneous administration, 0.05mg/kg.

Like-named read-outs stand apart in the source and are kept apart here.

Here are results for one molecule from EP4813403A1, “USE OF GLP-1R/GIPR DOUBLE-TARGET AGONIST IN PREPARING ANIMAL DRUG” (Hangzhou Zhongmeihuadong Pharmaceutical Co., Ltd., priority 2023, dated 2025).

Turning to `CC[C@H](C)[C@H](NC(=O)C(C)(C)NC(=O)[C@H](Cc1ccc(O)cc1)NC(=O)[C@H](CC(=O)O)NC(=O)[C@H](CO)NC(=O)[C@@H](NC(=O)C(C)(Cc1ccccc1)NC(=O)[C@@H](NC(=O)CNC(=O)[C@H](CCC(=O)O)NC(=O)C(C)(C)NC(=O)[C@@H](N)Cc1ccc(O)cc1)[C@@H](C)O)[C@@H](C)O)C(=O)NC(C)(C)C(=O)N[C@@H](CC(C)C)C(=O)N[C@@H](CC(=O)O)C(=O)N[C@@H](CCCCN)C(=O)N[C@@H](CCC(N)=O)C(=O)N[C@@H](C)C(=O)N[C@@H](CCC(N)=O)C(=O)N[C@@H](C)C(=O)N[C@@H](CCC(=O)O)C(=O)N[C@@H](Cc1ccccc1)C(=O)N[C@H](C(=O)N[C@@H](CCCCNC(=O)COCCOCCNC(=O)COCCOCCNC(=O)COCCOCCNC(=O)CC[C@H](NC(=O)CCCCCCCCCCCCCCCCCCCCC(=O)O)C(=O)O)C(=O)N[C@@H](Cc1c[nH]c2ccccc12)C(=O)N[C@@H](CC(C)C)C(=O)N[C@@H](CC(C)C)C(=O)N[C@@H](CCCCN)C(=O)NCC(=O)NCC(=O)N1CCC[C@H]1C(=O)N[C@@H](CO)C(=O)N[C@@H](CO)C(=O)NCC(=O)N[C@@H](C)C(=O)N1CCC[C@H]1C(=O)N1CCC[C@H]1C(=O)N1CCC[C@H]1C(=O)N[C@@H](CO)C(=O)N[C@@H](CCCCN)C(N)=O)C(C)C` (stereo partly drawn) [Compound P016], the AUC(0-t) in series [1] (setting [2]) turned out to be 29925 ng·h/mL; in series [1] (dog, in vivo, sc, beagle dogs, single subcutaneous administration, 0.05mg/kg, read-out: AUC0-t), 29900 ± 5660 ng·h/mL. Besides, the highest concentration (Cmax) in series [1] (setting [2]) was 407.33 ng/mL; in series [1] (dog, in vivo, sc, beagle dogs, single subcutaneous administration, 0.05mg/kg, read-out: Cmax), 407 ± 45.8 ng/mL. The Tmax turned out to be 19.33 h in series [1] (setting [2]) and 19.3 ± 8.08 h in series [1] (dog, in vivo, sc, beagle dogs, single subcutaneous administration, 0.05mg/kg, read-out: Tmax). In addition, the MRT stood at 108 ± 23.2 h in series [1] (dog, in vivo, sc, 0.05 mg/kg, MRT0-inf) and 44.8 ± 4.17 h in series [1] (dog, in vivo, sc, 0.05 mg/kg, MRT0-t). Besides, the T1/2 in series [1] (dog, in vivo, sc, 0.05 mg/kg) turned out to be 69.32 h. Further, the AUC(0-inf) in series [1] (setting [3]) worked out at 52100 ± 14700 ng·h/mL. The molecule further had a half-life in series [1] (setting [3]) of 69.3 ± 14 h. Further, the “GIPR EC50 ratio” value on rabbit GIPR is listed as 5.34.

The Cmax is the highest concentration seen after dosing. Usually Tmax stands for the time at which the peak concentration occurs. What is called MRT is the average time that molecules of a dose stay in the body. By AUC(0-inf) is commonly meant total exposure, with the tail of the curve extrapolated. Lower therefore signals less exposure. By half-life is commonly meant the time needed for the level to fall by half in the phase considered.
